Where “and” joins values, the source holds several entries; their conditions need not be identical. Equal values may be shown once.
Assays:
[1] = Binding to proteins in human plasma in vitro; format: in vitro ADME; conditions: human vs rat plasma
Procedure: (§1) The free fraction in vitro was determined by adding the respective radioligand (100 kBq) to plasma or CSF (200 µL) and mixed vigorously. Aliquots of 20–50 µL were transferred to size exclusion chromatography columns (MicroSpin G-50; GE Healthcare GmbH, Solingen, Germany, centrifuged for two min at 2000 rpm, and the radioactivity in the filtrate and in the resin were measured in the gamma-counter. Three independent experiments were performed in triplicates.

[2] = Free fraction in rat plasma; format: in vitro ADME; conditions: rat plasma, Figure 3b
Procedure: as §1
For the ex vivo determination of the radioligands binding to proteins the respective tracer (15 MBq) was administered intravenous to male Sprague Dawley rats (200–250 g) under isoflurane anesthesia. Blood samples were drawn intravenous after 5, 15 and 30 min and centrifuged for 5 min at 2000 rpm in heparin-coated vials. An aliquot of 50 µL was taken from the supernatant and added to an equal volume of water (10% TFA). The protein precipitate was centrifuged off for 5 min at 25,000 rpm and analyzed together with a further 50 µL aliquot of the supernatant in the gamma-counter. Two independent experiments were performed.

[3] = In vivo stability in blood of living rats (radiometabolites); design: species or system rat
Procedure: For the determination of radioligand stability in vivo and detection of radiometabolites the respective radiotracer (15 MBq) was administered intravenous to male Sprague Dawley rats (200–250 g) under isoflurane anesthesia. Blood samples were drawn intravenous after 5, 15 and 30 min and centrifuged for 5 min at 2000 rpm in heparin-coated vials. An aliquot of 50 µL was taken from the supernatant and added to an equal volume of water (10% TFA). The protein precipitate was centrifuged off for 5 min at 25,000 rpm and an aliquot of the supernatant was fractioned with HPLC (Chromolith RP-18e, 100 mm × 4.6 mm, 4 mL/min, solvent A: water (0.1% TFA), solvent B: acetonitrile (0.1% TFA), gradient A/B: 90:10 to 0:100 in 15 min, λ = 214 nm). The fractions were then analyzed in the gamma-counter. To identify the fractions containing the intact radioligand, the retention time and fractioning of the respective tracer was previously assessed. Two independent experiments were performed.

[4] = target: T1, P-gp (Homo sapiens, UniProt P08183); assay: P-gp inhibition assay (cellular uptake) in Caco-2 cells; format: cell-based
T1 construct: endogenous in cells; host or cells: Caco-2
Procedure: (§2) EA.hy926 cells were seeded in culture medium at confluency the day prior to experiment or in case of the Caco-2 cells two days prior to experiment in 24-multiwell plates (Greiner Bio-One International GmbH, Kremsmünster, Austria). On the day of the experiment the culture medium was removed and the cells were washed once with PBS (500 µL). Culture medium supplemented with cyclosporine-A (5 µM for EA.hy926 and 10 µM for Caco-2) was added and the cells were incubated at 37 °C for 30 min. Afterwards 1 MBq of [^18F]2b was added to each well and incubated for further 30, 60 and 90 min. After incubation cells were washed with ice cold PBS (500 µL) and lysated with 0.1 M NaOH. The medium and lysates were analysed in the gamma-counter. To identify cyclosporine-A induced accumulation the experiment was also performed using culture medium lacking cyclosporine-A. As positive control the experiment was performed with ^99mTc-MIBI (100 kBq/well), a known P-gp substrate. To determine the lowermost concentration with which a maximum effect was obtained, cyclosporine-A was applied in a range of 0–50 µM and observed in a time frame of 30–120 min for both cell lines.

[5] = target: T2, D3 receptor in rat brain (Rattus norvegicus, UniProt P19020); assay: Saturation binding assay on rat brain sections; conditions: for Bmax: rat brain sections, n = 4
T2 construct: from tissue; host or cells: brain cryosections (12 µm) of male Wistar rats

[6] = target: T1, P-gp; assay: P-gp inhibition assay (cellular uptake) in EA.hy926 cells; format: cell-based
Procedure: as §2

[7] = design: method as in PMID 24339325, PMID 26707848; conditions: experimental, pH 7.4, n = 6, previously reported; cited from earlier work
[8] = target: T1, P-gp; assay: Bi-directional transport assay in Caco-2 cells; format: cell-based
Procedure: The procedure of initially adding equal concentrations to both compartments was adapted from the literature. Caco-2 cells were seeded near confluency in thin-cert inserts (translucent, Ø 0.4 µm, 24 well PET membrane, Greiner) and placed in multiwell plates (CELLSTAR 24 Multiwell plates, Greiner). The culture medium basolateral (multiwell) and apical (insert) was renewed every 2–3 days. Approximately 12 days after seeding the Caco-2 cells reached their highest trans-epithelial resistance, which was monitored every four days and on day of the experiment. An immunocytochemistry was also performed with an additional insert (translucent) to confirm stable formation of tight-junctions and cell monolayer. Culture medium was then removed and the cells were washed with PBS. Culture medium supplemented with cyclosporin (10 µM) was added to both compartments and the cells were incubated at 37 °C for 30 min. Afterwards 1 MBq [^18F]2b was added to each compartment. An aliquot was taken from each compartment after 0, 30, 60 and 90 min and analyzed in the gamma-counter. To identify cyclosporine-A induced accumulation the experiment was also performed using culture medium lacking cyclosporine-A. As positive control the experiment was performed with ^99mTc-MIBI (100 kBq/ compartment).

[9] = Caco-2, absence of cyclosporin-A, up to 90 min

T2 sequence (P19020 whole entry): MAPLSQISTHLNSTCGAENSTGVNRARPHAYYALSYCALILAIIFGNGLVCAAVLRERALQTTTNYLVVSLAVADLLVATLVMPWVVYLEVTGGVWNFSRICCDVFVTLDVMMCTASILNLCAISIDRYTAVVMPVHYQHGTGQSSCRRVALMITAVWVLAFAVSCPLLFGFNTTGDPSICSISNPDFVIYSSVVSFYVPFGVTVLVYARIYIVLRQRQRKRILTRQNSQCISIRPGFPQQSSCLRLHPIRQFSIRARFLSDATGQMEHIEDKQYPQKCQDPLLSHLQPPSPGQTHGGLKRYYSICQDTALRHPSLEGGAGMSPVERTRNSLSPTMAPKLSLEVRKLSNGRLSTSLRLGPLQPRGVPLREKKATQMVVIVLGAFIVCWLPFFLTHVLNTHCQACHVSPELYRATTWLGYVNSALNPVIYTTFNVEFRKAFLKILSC
T1 sequence (P08183 whole entry): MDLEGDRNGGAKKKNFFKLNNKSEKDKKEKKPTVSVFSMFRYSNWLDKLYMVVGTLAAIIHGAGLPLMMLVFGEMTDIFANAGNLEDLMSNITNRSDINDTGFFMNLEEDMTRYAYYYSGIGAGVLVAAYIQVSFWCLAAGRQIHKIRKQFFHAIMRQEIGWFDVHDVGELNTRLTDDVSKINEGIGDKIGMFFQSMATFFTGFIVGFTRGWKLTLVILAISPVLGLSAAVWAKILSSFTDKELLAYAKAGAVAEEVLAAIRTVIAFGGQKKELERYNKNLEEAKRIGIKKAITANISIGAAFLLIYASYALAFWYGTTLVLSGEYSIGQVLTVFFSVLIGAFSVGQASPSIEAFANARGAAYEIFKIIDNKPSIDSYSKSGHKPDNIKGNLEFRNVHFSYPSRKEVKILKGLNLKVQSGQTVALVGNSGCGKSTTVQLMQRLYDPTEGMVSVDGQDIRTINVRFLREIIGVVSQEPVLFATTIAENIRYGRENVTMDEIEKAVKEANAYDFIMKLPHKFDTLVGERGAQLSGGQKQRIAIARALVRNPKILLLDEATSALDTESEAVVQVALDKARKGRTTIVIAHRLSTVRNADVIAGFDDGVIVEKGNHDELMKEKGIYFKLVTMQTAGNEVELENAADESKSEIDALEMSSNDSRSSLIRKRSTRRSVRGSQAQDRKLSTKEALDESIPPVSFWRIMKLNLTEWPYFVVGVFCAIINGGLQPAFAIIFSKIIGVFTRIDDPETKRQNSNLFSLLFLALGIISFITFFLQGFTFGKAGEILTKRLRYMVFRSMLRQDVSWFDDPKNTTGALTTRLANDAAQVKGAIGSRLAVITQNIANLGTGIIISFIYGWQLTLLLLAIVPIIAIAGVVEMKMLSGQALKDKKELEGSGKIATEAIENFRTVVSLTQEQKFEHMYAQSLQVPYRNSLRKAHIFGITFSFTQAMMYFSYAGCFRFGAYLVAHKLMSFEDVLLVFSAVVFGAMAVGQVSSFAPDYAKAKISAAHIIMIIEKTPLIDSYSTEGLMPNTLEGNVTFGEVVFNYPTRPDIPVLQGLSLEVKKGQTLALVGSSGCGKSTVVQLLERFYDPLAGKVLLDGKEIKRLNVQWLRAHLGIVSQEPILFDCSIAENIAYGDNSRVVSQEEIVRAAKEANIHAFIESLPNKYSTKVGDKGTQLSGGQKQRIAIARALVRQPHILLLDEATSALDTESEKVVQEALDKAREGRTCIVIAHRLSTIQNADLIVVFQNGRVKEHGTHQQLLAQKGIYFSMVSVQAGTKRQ

SMILES: COc1ccccc1N1CCN(CCCCNC(=O)/N=N/c2ccc([18F])cc2)CC1 [[^18F]2b]
- binding to human plasma higher than in rat plasma [1]: 20%–30%
- free radioligand in rat plasma [2]: 80%
- intact tracer in rat plasma ([3]; 5 min after i.v. injection): 49%
- intact tracer in rat plasma ([3]; 30 min after i.v. injection): 37%
- percentage inside the cells [4]: 10%
- influence of cyclosporin-A on cellular uptake ([4]; with vs without cyclosporin-A): did not increase the uptake
- Kd ([5]; all three regions): ~100 pM
- Kd ([5]; caudate putamen): 80 ± 60 pM
- Bmax ([5]; caudate putamen (striatum)): 16.58 pmol/g and 16.58 ± 1.63 pmol/g
- Kd ([5]; islands of calleja): 100 ± 10 pM
- Bmax ([5]; islands of calleja): 20.38 pmol/g and 20.38 ± 2.67 pmol/g
- Kd ([5]; nucleus accumbens): 110 ± 70 pM
- Bmax ([5]; nucleus accumbens): 19.54 pmol/g and 19.54 ± 1.85 pmol/g
- percentage inside the cells [6]: 5%
- influence of cyclosporin-A on cellular uptake ([6]; with vs without cyclosporin-A): did not increase the uptake
- Log D7.4 [7]: 2.10 ± 0.10
- concentration in the apical compartment, % of the initial concentration [8, 9]: 90%
- concentration in the basolateral compartment, % of the initial concentration [8, 9]: 100%
- concentration in the basolateral compartment ([8]; Caco-2, presence of cyclosporin-A): stayed nearly constant
- concentration in the apical compartment, % of the initial concentration ([8]; Caco-2, presence of cyclosporin-A (^99mTc-MIBI after 60 and 90 min; [^18F]2b after 30 min)): 80%
- P-gp substrate ([8]; conclusion from inhibition and transport assays): no P-gp substrate
